According to patent US20260158102A1, “CYCLIC PEPTIDE DERIVATIVE COMPOSITION FOR TREATING OR PREVENTING NEUROPATHIC PAIN AND/OR INFLAMMATORY PAIN” (DKS Co. Ltd., priority 2022, published 2026):

Key:
[1] = Observation of general condition in rat STZ-induced diabetes model; assay type: in vivo; details: 20 mg/kg oral, number of animals, 10 per group
Method: (§1) Compound 9 (50 mg/mL) was diluted with water for injection to obtain a 1 mg/mL administration specimen. For the specimens to be administered at 0.1 mg/mL and 0.01 mg/mL, the specimen to be administered at 1 mg/mL was diluted stepwise with water for injection. Each administration specimen was divided into PP disposable tubes every day and stored in a storehouse (freezer: MDF-MU339H-PJ, PHC Corporation) under the condition of freezing (−30° C. to −20° C., measured value: −26.4 to −24.5° C.). Preparation was performed on the day before the start of administration.
(§2) Water for injection was added to and dissolved in Pregabalin taken out from the capsule to obtain 2 mg/mL. It was prepared before use.
(§3) • Animal species: rat (SPF) • Strain: Crl: CD (SD) • Date of animal acquisition, gender, age in weeks, number of animals acquired, and weight range after 1 day of acquisition • First and second courses: Apr. 6, 2022, male, 7 weeks old, 35 animals, 217 to 237 g • Third and fourth courses: Apr. 13, 2022, male, 7 weeks old, 35 animals, 216 to 235 g • Source: […].
(§4) • Dose volume: calculated at 2 mL/kg based on the body weight on the day of administration. • Number of times of administration: once • Day of administration: 7 days before the day of starting administration of the test substance.
(§5) • Dose volume: calculated at 1 mL/kg based on the body weight on the day of administration. • Number of times of administration: 9 times • Interval of administration: once every 3 days (evaluation was performed on the day after administration) • Day of starting administration: day 8 of STZ administration (day of STZ administration is counted as day 1).
(§6) • Dose volume: calculated at 10 mL/kg based on the body weight on the day of administration. • Number of times of administration: Administration was performed once on the day of evaluation of neuropathic pain, twice in total, and on the other days of administration, a vehicle for a control substance (water for injection) was orally administered.
• Observation of general condition • Observation was performed once a day.

[2] = Measurement of blood glucose level in rat STZ-induced diabetes model; assay type: in vivo; details: mean ± SE
Method: as §1, §2, §3, §4, §5, §6
On days 7 and 35 of STZ administration, about 50 μL of blood was collected from the tail vein using a winged injection needle (Terumo Corporation) equipped with a heparinized capillary (DRUMMOND […]).
The blood obtained above was centrifuged [centrifugal conditions: 4° C., 3,000 rpm (×2,150 g), 15 min] with a centrifuge (CF 9RX, Hitachi Koki Co., Ltd.) to obtain plasma. Blood glucose levels of a part of plasma obtained by blood collection on day 7 and day 35 after STZ administration were measured by hexokinase G-6 PDH method (L-type Wako Glu2, FUJIFILM Wako Pure Chemical Corporation) using a biochemical automatic analyzer (AU480, Beckman Coulter, Inc.). […] The plasma after the measurement was discarded.
The mean and standard error of each group were calculated for the 50% withdrawal threshold, body weight, and blood glucose level.
The body weight was an integer.
No significant difference test of body weight and blood glucose levels was performed.

## CC(C)C[C@H](CN)CC(=O)O [Pregabalin, reference compound]
[1]; day 1 of STZ administration
  general condition: 10
[1]; day 2 of STZ administration
  general condition: 10
[1]; day 3 of STZ administration
  general condition: 10
[1]; day 4 of STZ administration
  general condition: 10
[1]; day 5 of STZ administration
  general condition: 10
[1]; day 6 of STZ administration
  general condition: 10
[1]; day 7 of STZ administration
  general condition: 10
[1]; day 8 of STZ administration
  general condition: 10
[1]; day 9 of STZ administration
  general condition: 10
[1]; day 10 of STZ administration
  general condition: 10
[1]; day 11 of STZ administration
  general condition: 10
[1]; day 12 of STZ administration
  general condition: 10
[1]; day 13 of STZ administration
  general condition: 10
[1]; day 14 of STZ administration
  general condition: 10
[1]; day 15 of STZ administration
  general condition: 10
[1]; day 16 of STZ administration
  general condition: 10
[1]; day 17 of STZ administration
  general condition: 10
[1]; day 18 of STZ administration
  general condition: 10
[1]; day 19 of STZ administration
  general condition: 10
[1]; day 20 of STZ administration
  general condition: 10
[1]; day 21 of STZ administration
  general condition: 10
[1]; day 22 of STZ administration
  general condition: 10
[1]; day 23 of STZ administration
  general condition: 10
[1]; day 24 of STZ administration
  general condition: 10
[1]; day 25 of STZ administration
  general condition: 10
[1]; day 26 of STZ administration
  general condition: 10
[1]; day 27 of STZ administration
  general condition: 10
[1]; day 28 of STZ administration
  general condition: 10
[1]; day 29 of STZ administration
  general condition: 10
[1]; day 30 of STZ administration
  general condition: 10
[1]; day 31 of STZ administration
  general condition: 10
[1]; day 32 of STZ administration
  general condition: 10
[1]; day 33 of STZ administration
  general condition: 10
[1]; day 34 of STZ administration
  general condition: 10
[1]; day 35 of STZ administration
  general condition: 10
[2]; 20 mg/kg oral group, day 7 of STZ administration (before start of dosing)
  Blood glucose level, Glu: 575.8 ± 20.0 mg/dL
[2]; 20 mg/kg oral, day 35 of STZ administration
  Blood glucose level, Glu: 567.4 ± 22.5 mg/dL
